The results in this text go back to ChEMBL document CHEMBL1201862, “PubChem BioAssay data set” (2004).

Among the test systems are SK-MEL-5; UACC-62; MOLT-4; UACC-257; HCC 2998; ACHN; MDA-MB-231; NCI-H226; SR; IGROV-1; A498; MCF7; TK-10; Hs-578T; HCT-15; M14; CCRF-CEM; OVCAR-5; K562; U-251.
Holding throughout (assay): NCI tumour cell line growth inhibition, 48 h

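Interpolation was linear, between the two tested concentrations surrounding the appropriate level; five concentrations were tested over 48 hours in 96-well plates. GI50: concentration for 50% inhibition of growth.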 Active and inactive are the calls of the source. Cut-off read from the data, not from the text of the source: active = GI50 up to about 1.1 µM and inactive = higher. Bounds are passed on as bounds.

With `COc1ccc(/C=C/C(=O)Oc2ccc(/C=C3\CCCCC3=O)cc2)cc1`, the GI50 with SK-MEL-5 is > 100 µM (inactive); in the test on UACC-62, 2.96 µM (inactive); in the test with MOLT-4, 2.51 µM (inactive); in the test on UACC-257, > 67.8 µM (inactive); in the test with HCC 2998, > 39.1 µM (inactive); with ACHN, > 100 µM (inactive). For the same molecule, the GI50 was 40.9 µM (inactive) in the test with MDA-MB-231; 25.3 µM (inactive) with NCI-H226; > 100 µM (inactive) in the test with SR; 38.6 µM (inactive) in the test with IGROV-1; > 100 µM (inactive) in the test on A498; > 100 µM (inactive) in the test on MCF7. Moreover, the GI50 in the test with TK-10 is > 91.6 µM (inactive); with Hs-578T it was > 80.5 µM (inactive); in the test on HCT-15, 29.1 µM; in the test with M14, > 100 µM (inactive); with CCRF-CEM it was 1.93 µM (inactive); with OVCAR-5 it was > 100 µM (inactive). In addition, the figures for the GI50 with K562 and in the test with U-251 were > 100 µM (inactive) and > 94.6 µM (inactive), respectively.
For `C=C1c2nc3ccccc3n2C=C(c2ccc(C)cc2)N1c1ccccc1`, the GI50 was 2.13 µM (inactive) in the test on SK-MEL-5; 2.86 µM (inactive) in the test on UACC-62; 4.41 µM (inactive) with MOLT-4; 7.93 µM (inactive) in the test on UACC-257; 2.26 µM (inactive) in the test with HCC 2998; 15.1 µM (inactive) with ACHN. Further, the GI50 with MDA-MB-231 was 4.92 µM (inactive); with NCI-H226 it was 2.43 µM (inactive); with SR it was 0.445 µM (active); in the test with IGROV-1 it was 3.33 µM (inactive); in the test with A498 it was 4.53 µM (inactive); in the test with MCF7 it was 2.47 µM (inactive). The GI50 in the test with TK-10 is 18.8 µM (inactive); in the test on Hs-578T it was 4.21 µM (inactive); in the test with HCT-15, 1.47 µM; in the test on M14 it was 3.12 µM (inactive); with CCRF-CEM it was 3.3 µM (inactive); in the test with OVCAR-5 it was 20.7 µM (inactive). In addition, the results for the GI50 in the test with K562 and with U-251 were 1.11 µM (active) and 3.27 µM (inactive), respectively.
As for `O=C(Nc1ccc(Cl)cc1)c1cc(S(=O)(=O)NC2=Nc3ccc(Cl)cc3C(c3ccccc3)N2)c(SSc2cc(Cl)c(C(=O)Nc3ccc(Cl)cc3)cc2S(=O)(=O)NC2=Nc3ccc(Cl)cc3C(c3ccccc3)N2)cc1Cl` (stereo not given), the GI50 in the test on SK-MEL-5 is > 73.3 µM (inactive); with UACC-62, > 90.4 µM (inactive); in the test on MOLT-4 it was 25.9 µM (inactive); in the test with UACC-257 it was > 100 µM (inactive); in the test on HCC 2998 it was > 100 µM (inactive); in the test with ACHN, > 100 µM (inactive). The GI50 in the test on MDA-MB-231 is 24.3 µM (inactive); with NCI-H226, > 100 µM (inactive); in the test with SR it was 16.5 µM (inactive); with IGROV-1 it was > 100 µM (inactive); with A498, > 100 µM (inactive); with MCF7, > 100 µM (inactive). The GI50 in the test on TK-10 is > 100 µM (inactive); in the test with Hs-578T, > 100 µM (inactive); with HCT-15, more than 100 µM; with M14 it was 46.1 µM (inactive); in the test on CCRF-CEM, 17.1 µM (inactive); with OVCAR-5, 83.4 µM (inactive). In addition, the values for the GI50 in the test with K562 and with U-251 were 46.8 µM (inactive) and > 100 µM (inactive), respectively.
With `COc1cc(-c2cc(=O)c3cc4c(=O)cc(-c5cc(OC)c(OC)c(OC)c5)oc4cc3o2)cc(OC)c1OC`, the GI50 is > 100 µM (inactive) in the test with SK-MEL-5; 13.9 µM (inactive) in the test on UACC-62; > 88.7 µM (inactive) with MOLT-4; > 83.6 µM (inactive) with UACC-257; > 100 µM (inactive) in the test with HCC 2998; 25.1 µM (inactive) with ACHN. Moreover, the GI50 in the test on MDA-MB-231 is > 39 µM (inactive); in the test on NCI-H226, 12.9 µM (inactive); with SR, > 100 µM (inactive); in the test with IGROV-1 it was 22.7 µM (inactive); in the test on A498, 24.7 µM (inactive); with MCF7, > 100 µM (inactive). In addition, the GI50 is 16.3 µM (inactive) with TK-10; 20.1 µM (inactive) in the test on Hs-578T; more than 100 µM in the test with HCT-15; 60.3 µM (inactive) with M14; > 100 µM (inactive) with CCRF-CEM; > 100 µM (inactive) with OVCAR-5. In addition, the GI50 was > 41.9 µM (inactive) with K562 and 8.59 µM (inactive) with U-251.
For `COc1c(O)c(O)cc2c1-c1ccc(OC)c(=O)cc1C(NC(C)=O)CC2` (stereo not given), the GI50 was 2.52 µM (inactive) in the test on SK-MEL-5; 4.36 µM (inactive) in the test on UACC-62; 6.24 µM (inactive) with MOLT-4; 7.26 µM (inactive) with UACC-257; 5.38 µM (inactive) in the test with HCC 2998; 37.5 µM (inactive) in the test with ACHN. In addition, the GI50 was 4.94 µM (inactive) in the test with MDA-MB-231; 21 µM (inactive) in the test on NCI-H226; 3.24 µM (inactive) in the test on SR; 5.26 µM (inactive) with IGROV-1; 15.5 µM (inactive) in the test with A498; 2.61 µM (inactive) in the test with MCF7. Moreover, the GI50 was 65.2 µM (inactive) in the test with TK-10; 2.66 µM (inactive) in the test on Hs-578T; 30.6 µM in the test with HCT-15; 3.78 µM (inactive) in the test on M14; 3.72 µM (inactive) in the test on CCRF-CEM; 40 µM (inactive) with OVCAR-5. Further, the GI50 is 3.57 µM (inactive) in the test with K562 and 4.03 µM (inactive) in the test on U-251.
Take `C/C(=N\N=C(N)N)c1c(C(=O)OCCCCCCOC(=O)c2nc3sccn3c2/C(C)=N/N=C(N)N)nc2sccn12`: the GI50 was 99.1 µM (inactive) in the test on SK-MEL-5; > 100 µM (inactive) in the test on UACC-62; 32.2 µM (inactive) in the test with MOLT-4; > 100 µM (inactive) with UACC-257; > 100 µM (inactive) with HCC 2998; > 100 µM (inactive) in the test on ACHN. The GI50 in the test with MDA-MB-231 was > 100 µM (inactive); in the test with NCI-H226 it was > 100 µM (inactive); with SR, 18.3 µM (inactive); in the test on IGROV-1, > 100 µM (inactive); in the test with A498, > 100 µM (inactive); in the test on MCF7, 47.4 µM (inactive). Besides, the GI50 in the test on TK-10 was 22.8 µM (inactive); with Hs-578T, > 100 µM (inactive); in the test with HCT-15, more than 100 µM; in the test with M14, > 100 µM (inactive); with CCRF-CEM it was 20.5 µM (inactive); in the test with OVCAR-5, > 100 µM (inactive). The GI50 in the test on K562 was 19.5 µM (inactive); in the test with U-251, 37.7 µM (inactive).
Turning to `COC(=O)/C=C1\CCCN1CCc1cc2c(cc1CC#N)OCO2`, the GI50 in the test on SK-MEL-5 was 25.6 µM (inactive); in the test with UACC-62, 31.4 µM (inactive); in the test on MOLT-4 it was 34.4 µM (inactive); in the test on UACC-257 it was 59.4 µM (inactive); in the test with HCC 2998, 28.1 µM (inactive); in the test with ACHN it was > 100 µM (inactive). For the same molecule, the GI50 is 47.9 µM (inactive) in the test with MDA-MB-231; 48.6 µM (inactive) with NCI-H226; 16.5 µM (inactive) with SR; > 100 µM (inactive) in the test on IGROV-1; 32.7 µM (inactive) in the test on A498; 32.9 µM (inactive) in the test on MCF7. For the same molecule, the GI50 in the test with TK-10 was > 100 µM (inactive); in the test on Hs-578T it was > 100 µM (inactive); in the test on HCT-15, 43.2 µM; in the test on M14, 71.1 µM (inactive); in the test on CCRF-CEM, 42.5 µM (inactive); in the test with OVCAR-5, > 100 µM (inactive). The GI50 is 49.4 µM (inactive) in the test on K562 and 39.7 µM (inactive) in the test with U-251.
Turning to `O=C(CCSC1=NCCCN1)c1ccc(F)cc1`, the GI50 in the test on SK-MEL-5 is 18.9 µM (inactive); in the test with UACC-62 it was 17.2 µM (inactive); with MOLT-4, 2.62 µM (inactive); with UACC-257, 18.8 µM (inactive); in the test with HCC 2998 it was 18.6 µM (inactive); in the test on ACHN it was 15.5 µM (inactive). Moreover, the GI50 in the test with MDA-MB-231 was 21.5 µM (inactive); with NCI-H226 it was 17.4 µM (inactive); in the test with SR, 3.3 µM (inactive); in the test on IGROV-1, 18 µM (inactive); in the test on A498, 20.6 µM (inactive); in the test on MCF7, 4.41 µM (inactive). Moreover, the GI50 in the test with TK-10 is 15.8 µM (inactive); in the test on Hs-578T, 22 µM (inactive); in the test with HCT-15, 13.1 µM; in the test on M14, 15.6 µM (inactive); with CCRF-CEM it was 2.61 µM (inactive); in the test with OVCAR-5, 15 µM (inactive). For the same molecule, the GI50 was 3.13 µM (inactive) with K562 and 17.5 µM (inactive) in the test on U-251.
As for `COCC(=O)OC1CCn2c1nc1c2C(=O)C(C)=C(NC(C)=O)C1=N` (stereo not given), the GI50 in the test on SK-MEL-5 is 2.42 µM (inactive); in the test with UACC-62, 1.66 µM (inactive); in the test with MOLT-4, 2.34 µM (inactive); in the test with UACC-257, 2.43 µM (inactive); in the test with HCC 2998 it was 13.7 µM (inactive); in the test on ACHN, 7.71 µM (inactive). The GI50 in the test on MDA-MB-231 is 3.27 µM (inactive); in the test on NCI-H226 it was 18.5 µM (inactive); in the test with SR it was 2.64 µM (inactive); in the test with IGROV-1 it was 10.8 µM (inactive); with A498, 18.5 µM (inactive); in the test with MCF7 it was 1.69 µM (inactive). Besides, the GI50 in the test on TK-10 was 15.6 µM (inactive); with Hs-578T, 4.1 µM (inactive); in the test on HCT-15, 8.13 µM; in the test on M14, 4.95 µM (inactive); in the test with CCRF-CEM, 2.1 µM (inactive); with OVCAR-5, 9.91 µM (inactive). In addition, the GI50 was 2.63 µM (inactive) in the test on K562 and 5.38 µM (inactive) with U-251.
With `CCCc1nc(Cl)nc(Cl)c1Cl`, the GI50 in the test on SK-MEL-5 was 0.935 µM (active); with UACC-62 it was 0.703 µM (active); in the test with MOLT-4 it was 0.065 µM (active); in the test with UACC-257, 0.615 µM (active); in the test on HCC 2998, 1.08 µM (active); in the test with ACHN, 0.611 µM (active). The GI50 is 0.665 µM (active) with MDA-MB-231; 2.35 µM (inactive) in the test with NCI-H226; < 0.0154 µM (active) in the test on SR; 0.807 µM (active) with IGROV-1; 2.87 µM (inactive) in the test on A498; 0.137 µM (active) in the test with MCF7. Moreover, the GI50 in the test on TK-10 was 0.762 µM (active); in the test with Hs-578T, 0.475 µM (active); in the test on HCT-15, 0.0796 µM; with M14, 0.336 µM (active); with CCRF-CEM, < 0.0264 µM (active); in the test with OVCAR-5 it was 0.817 µM (active). Besides, the GI50 in the test with K562 was < 0.0343 µM (active); in the test on U-251, 0.67 µM (active).
